System: hepatocytes
Assay: RNA-seq of hepatocytes treated with Phase III failure compounds
Conditions: hepatocytes
Protocol: RNA-seq was performed to determine the effects of the compounds on hepatocytes.
Significance was determined by the criteria of FPKM≥0.5, a log 2(fold-change)≥1, and a […].

CCC(CC)[C@H](NC(C)=O)[C@@H]1[C@H](O)[C@@H](C(=O)O)C[C@H]1NC(=N)N.O.O.O [peramivir (trihydrate), peramivir]
RNA-seq results: SLC33A1 (gene SLC33A1): −0.02
RNA-seq results, SLC35C1 (gene SLC35C1): 0.17
RNA-seq results: SLC35C1 (gene SLC35C1): 0.07
RNA-seq results, SLC39A4 (gene SLC39A4): 0.31
RNA-seq results: SLC39A4 (gene SLC39A4): 0.32
RNA-seq results, SLC40A1 (gene SLC40A1): 0.39
RNA-seq results: SLC40A1 (gene SLC40A1): −0.18
RNA-seq results, SLC46A1 (gene SLC46A1): 0.08
RNA-seq results: SLC46A1 (gene SLC46A1): 0.17
RNA-seq results, SLC51A (gene SLC51A): 0.08
RNA-seq results: SLC51A (gene SLC51A): −0.03
RNA-seq results, SLC51B (gene SLC51B): 0.29
RNA-seq results: SLC51B (gene SLC51B): 0.08
RNA-seq results, SLCO1B1 (gene SLCO1B1): −0.33
RNA-seq results: SLCO1B1 (gene SLCO1B1): −0.23
RNA-seq results, SLCO4C1 (gene SLCO4C1): −0.39
RNA-seq results: SLCO4C1 (gene SLCO4C1): −0.05
RNA-seq results, SMAD4 (gene SMAD4): −0.2
RNA-seq results: SMAD4 (gene SMAD4): −0.17
RNA-seq results, SMARCB1 (gene SMARCB1): 0.11
RNA-seq results: SMARCB1 (gene SMARCB1): −0.19
RNA-seq results, SNX10 (gene SNX10): −0.36
RNA-seq results: SNX10 (gene SNX10): −0.57
RNA-seq results, SORT1 (gene SORT1): −0.15
RNA-seq results: SORT1 (gene SORT1): −0.12
RNA-seq results, SPP2 (gene SPP2): −0.12
RNA-seq results: SPP2 (gene SPP2): −0.17
RNA-seq results, SPRTN (gene SPRTN): −0.17
RNA-seq results: SPRTN (gene SPRTN): −0.18
RNA-seq results, ST3GAL5 (gene ST3GAL5): −0.19
RNA-seq results: ST3GAL5 (gene ST3GAL5): −0.11
RNA-seq results, STAT1 (gene STAT1): −0.31
RNA-seq results: STAT1 (gene STAT1): −0.45
RNA-seq results, STEAP3 (gene STEAP3): 0.03
RNA-seq results: STEAP3 (gene STEAP3): 0.03
RNA-seq results, STIM1 (gene STIM1): 0.1
RNA-seq results: STIM1 (gene STIM1): −0.07
RNA-seq results, SULT2A1 (gene SULT2A1): 0.65
RNA-seq results: SULT2A1 (gene SULT2A1): −0.07
RNA-seq results, SUOX (gene SUOX): −0.18
RNA-seq results: SUOX (gene SUOX): −0.01
RNA-seq results, TARS2 (gene TARS2): 0.2
RNA-seq results: TARS2 (gene TARS2): −0.08
RNA-seq results, TAT (gene TAT): −0.56
RNA-seq results: TAT (gene TAT): 0.16
RNA-seq results, TCIRG1 (gene TCIRG1): 0.29
RNA-seq results: TCIRG1 (gene TCIRG1): 0.39
RNA-seq results, TCTN3 (gene TCTN3): −0.04
RNA-seq results: TCTN3 (gene TCTN3): −0.34
RNA-seq results, TDO2 (gene TDO2): −0.58
RNA-seq results: TDO2 (gene TDO2): −0.14
RNA-seq results, TF (gene TF): 0.02
RNA-seq results: TF (gene TF): −0.09
RNA-seq results, TFR2 (gene TFR2): 0.21
RNA-seq results: TFR2 (gene TFR2): 0.07
RNA-seq results, TGFB1 (gene TGFB1): −0.25
RNA-seq results: TGFB1 (gene TGFB1): −0.16
RNA-seq results, THPO (gene THPO): −0.03
RNA-seq results: THPO (gene THPO): 0.03
RNA-seq results, THRB (gene THRB): −0.28
RNA-seq results: THRB (gene THRB): −0.18
RNA-seq results, TK2 (gene TK2): 0.12
RNA-seq results: TK2 (gene TK2): 0.15
RNA-seq results, TMEM67 (gene TMEM67): −0.01
RNA-seq results: TMEM67 (gene TMEM67): 0.04
RNA-seq results, TMEM135 (gene TMEM135): −0.13
RNA-seq results: TMEM135 (gene TMEM135): −0.41
RNA-seq results, TMEM165 (gene TMEM165): −0.14
RNA-seq results: TMEM165 (gene TMEM165): −0.17
RNA-seq results, TMLHE (gene TMLHE): −0.03
RNA-seq results: TMLHE (gene TMLHE): −0.50
RNA-seq results, TMPRSS6 (gene TMPRSS6): 0.1
RNA-seq results: TMPRSS6 (gene TMPRSS6): 0.34
RNA-seq results, TNFRSF1A (gene TNFRSF1A): 0.25
RNA-seq results: TNFRSF1A (gene TNFRSF1A): −0.13
RNA-seq results, TNFSF11 (gene TNFSF11): −0.54
RNA-seq results: TNFSF11 (gene TNFSF11): −0.28
RNA-seq results, TP53 (gene TP53): −0.02
RNA-seq results: TP53 (gene TP53): 0.04
RNA-seq results, TTC21B (gene TTC21B): −0.14
RNA-seq results: TTC21B (gene TTC21B): −0.28
RNA-seq results, TTPA (gene TTPA): −0.46
RNA-seq results: TTPA (gene TTPA): −0.20
RNA-seq results, TTR (gene TTR): 0.19
RNA-seq results: TTR (gene TTR): −0.23
RNA-seq results, TYMP (gene TYMP): 0.37
RNA-seq results: TYMP (gene TYMP): 0.37
RNA-seq results, UBR1 (gene UBR1): −0.38
RNA-seq results: UBR1 (gene UBR1): −0.15
RNA-seq results, UGT1A1 (gene UGT1A1): −0.06
RNA-seq results: UGT1A1 (gene UGT1A1): −0.38
RNA-seq results, UGT2B28 (gene UGT2B28): 0.09
RNA-seq results: UGT2B28 (gene UGT2B28): 0.41
RNA-seq results, UNC13D (gene UNC13D): 0.05
RNA-seq results: UNC13D (gene UNC13D): 0.44
RNA-seq results, UPB1 (gene UPB1): 0.33
RNA-seq results: UPB1 (gene UPB1): 0.19
RNA-seq results, UQCRB (gene UQCRB): 0.17
RNA-seq results: UQCRB (gene UQCRB): −0.18
RNA-seq results, UROC1 (gene UROC1): −0.25
RNA-seq results: UROC1 (gene UROC1): −0.26
RNA-seq results, UTRN (gene UTRN): −0.35
RNA-seq results: UTRN (gene UTRN): −0.06
RNA-seq results, VIPAS39 (gene VIPAS39): 0.05
RNA-seq results: VIPAS39 (gene VIPAS39): −0.08
RNA-seq results, VLDLR (gene VLDLR): 0.62
RNA-seq results: VLDLR (gene VLDLR): −0.30
RNA-seq results, VPS13A (gene VPS13A): −0.28
RNA-seq results: VPS13A (gene VPS13A): 0.08
RNA-seq results, VPS33B (gene VPS33B): 0.18
RNA-seq results: VPS33B (gene VPS33B): 0.13
RNA-seq results, WAS (gene WAS): 0.19
RNA-seq results: WAS (gene WAS): 0.03
RNA-seq results, WDR35 (gene WDR35): −0.19
RNA-seq results: WDR35 (gene WDR35): −0.03
RNA-seq results, XDH (gene XDH): 0.28
RNA-seq results: XDH (gene XDH): 0.17
RNA-seq results, YARS2 (gene YARS2): 0
YARS2 expression, RNA-seq result (gene YARS2): −0.36
